Results reported in ChEMBL document CHEMBL1201862, “PubChem BioAssay data set” (2004).
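Step 1: Grow cells in 96-well plates. Step 2: Expose to compound for 48 hours at 5 concentrations. Step 3: Interpolate endpoints linearly; if unreached, use highest concentration. GI50 marks 50% less growth.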 Calls of active or inactive are those of the source. Rule as the data show it: active = GI50 up to about 1.1 µM and inactive = higher.

How the values were obtained:
Test in all cases: inhibition of tumour cell growth, NCI panel, 48 h
HCT-116 = test system: HCT-116
MDA-MB-435 = test system: MDA-MB-435
Hs-578T = test system: Hs-578T
RPMI-8226 = test system: RPMI-8226
A498 = test system: A498
HOP-92 = test system: HOP-92
DU-145 = test system: DU-145
SF-268 = test system: SF-268
CAKI-1 = test system: CAKI-1
NCI-H23 = test system: NCI-H23
K562 = test system: K562
RXF 393 = test system: RXF 393
SK-MEL-28 = test system: SK-MEL-28
HL-60 = test system: HL-60
U-251 = test system: U-251
SF-295 = test system: SF-295
Malme-3M = test system: Malme-3M
HCT-15 = test system: HCT-15
TK-10 = test system: TK-10
UACC-257 = test system: UACC-257
PC-3 = test system: PC-3
CCRF-CEM = test system: CCRF-CEM
OVCAR-5 = test system: OVCAR-5
SK-MEL-5 = test system: SK-MEL-5
LOX IMVI = test system: LOX IMVI
SK-MEL-2 = test system: SK-MEL-2
OVCAR-8 = test system: OVCAR-8
NCI/ADR-RES = test system: NCI/ADR-RES
KM12 = test system: KM12
A549 = test system: A549
MDA-N = test system: MDA-N
T47D = test system: T47D
MCF7 = test system: MCF7
NCI-H460 = test system: NCI-H460
OVCAR-3 = test system: OVCAR-3
COLO 205 = test system: COLO 205
SK-OV-3 = test system: SK-OV-3
SNB-19 = test system: SNB-19
SN12C = test system: SN12C
MDA-MB-231 = test system: MDA-MB-231
ACHN = test system: ACHN
IGROV-1 = test system: IGROV-1
M14 = test system: M14
NCI-H522 = test system: NCI-H522
SF-539 = test system: SF-539
UO-31 = test system: UO-31
SR = test system: SR
MOLT-4 = test system: MOLT-4
HCC 2998 = test system: HCC 2998
UACC-62 = test system: UACC-62
EKVX = test system: EKVX
NCI-H226 = test system: NCI-H226
786-0 = test system: 786-0
HOP-62 = test system: HOP-62
SW-620 = test system: SW-620

SMILES: COC1CC(OC(=O)c2ccccc2)C(OC(=O)c2ccccc2)C(C)O1 (stereo not given)
- GI50 (HCT-116): > 100 µM (inactive)
- GI50 (MDA-MB-435): > 100 µM (inactive)
- GI50 (Hs-578T): 59.8 µM (inactive)
- GI50 (RPMI-8226): > 100 µM (inactive)
- GI50 (A498): > 100 µM (inactive)
- GI50 (HOP-92): 19.3 µM (inactive)
- GI50 (DU-145): > 100 µM (inactive)
- GI50 (SF-268): > 100 µM (inactive)
- GI50 (CAKI-1): > 100 µM (inactive)
- GI50 (NCI-H23): > 100 µM (inactive)
- GI50 (K562): > 100 µM (inactive)
- GI50 (RXF 393): > 100 µM (inactive)
- GI50 (SK-MEL-28): > 100 µM (inactive)
- GI50 (HL-60): > 100 µM (inactive)
- GI50 (U-251): > 100 µM (inactive)
- GI50 (SF-295): > 100 µM (inactive)
- GI50 (Malme-3M): > 100 µM (inactive)
- GI50 (HCT-15): > 100 µM
- GI50 (TK-10): > 100 µM (inactive)
- GI50 (UACC-257): > 100 µM (inactive)
- GI50 (PC-3): > 100 µM (inactive)
- GI50 (CCRF-CEM): > 100 µM (inactive)
- GI50 (OVCAR-5): > 100 µM (inactive)
- GI50 (SK-MEL-5): > 100 µM (inactive)
- GI50 (LOX IMVI): > 100 µM (inactive)
- GI50 (SK-MEL-2): > 100 µM (inactive)
- GI50 (OVCAR-8): > 100 µM (inactive)
- GI50 (NCI/ADR-RES): > 100 µM (inactive)
- GI50 (KM12): > 100 µM (inactive)
- GI50 (A549): > 100 µM (inactive)
- GI50 (MDA-N): > 100 µM (inactive)
- GI50 (T47D): > 100 µM (inactive)
- GI50 (MCF7): > 100 µM (inactive)
- GI50 (NCI-H460): > 100 µM (inactive)
- GI50 (OVCAR-3): > 100 µM (inactive)
- GI50 (COLO 205): > 100 µM (inactive)
- GI50 (SK-OV-3): > 100 µM (inactive)
- GI50 (SNB-19): > 100 µM (inactive)
- GI50 (SN12C): > 100 µM (inactive)
- GI50 (MDA-MB-231): > 100 µM (inactive)
- GI50 (ACHN): > 100 µM (inactive)
- GI50 (IGROV-1): > 100 µM (inactive)
- GI50 (M14): > 100 µM (inactive)
- GI50 (NCI-H522): > 100 µM (inactive)
- GI50 (SF-539): > 100 µM (inactive)
- GI50 (UO-31): > 100 µM (inactive)
- GI50 (SR): > 100 µM (inactive)
- GI50 (MOLT-4): > 100 µM (inactive)
- GI50 (HCC 2998): > 100 µM (inactive)
- GI50 (UACC-62): > 100 µM (inactive)
- GI50 (EKVX): > 100 µM (inactive)
- GI50 (NCI-H226): 85.1 µM (inactive)
- GI50 (786-0): > 100 µM (inactive)
- GI50 (HOP-62): > 100 µM (inactive)
- GI50 (SW-620): > 100 µM (inactive)
